Experimental data from patent US9920053B2, “N-(hetero)aryl-substituted heteroyclic derivatives useful for the treatment of diseases or conditions related to the central nervous system” (CHRONOS THERAPEUTICS LIMITED, priority 2014, dated 2018).

Legend:
[1] = molecular target: human dopamine transporter (DAT) (Homo sapiens (Human), UniProt Q01959); test: Scintillation Proximity Assay (SPA) for human DAT binding ([3H]WIN-35,428); settings: recombinant human DAT, CHO
Excerpt: (§1) Affinity is expressed in terms of inhibition constant (Ki) of the compounds of the invention for DAT, NET and SERT, and it is typically calculated from the IC50 values obtained in competition experiments using Cheng and Prusoff equation (Cheng and Prusoff, Biochem. Pharmacol. 22:3099, 1973). In the context of the present invention pKi values (corresponding to the antilogarithm of Ki) are used instead of Ki; pKi are only estimated to be accurate to about 0.3 log unit.
(§2) Chinese Hamster Ovary (CHO) cells stably expressing either human DAT (hDAT-CHO) or human NET (hNET-CHO) or human SERT (hSERT-CHO) are used for the membrane preparations for radioligand binding assays using Scintillation proximity Assay (SPA) technique. Each cell line is cultured independently in F-12K Nutrient Mixture containing 10% of Fetal Bovine Serum (FBS) supplemented with 450 μg/ml G-418. When cells are at 70-80% of confluence 3 mM Na Butyrate was added to the cell culture medium. After 24 h of incubation, the culture medium was removed and the cells detached with Versene (DAT) or by scraping (NET and SERT). Cell suspension is centrifuged at 41,000 g for 10 minutes at 4° C. The resultant pellets are re-suspended in 15 volumes of Ice-cold buffer (20 mM HEPES, 145 mM NaCl, 5 mM KCl, pH7.3), homogenized using an Ultra Turrax homogeniser and centrifuged as before. The resultant membrane pellets are re-suspended in up to 15 volume of ice-cold buffer, incubated for 20 minutes at 37° C and centrifuged as before at 41,000 g. The final membrane pellets are re-suspended into 5-10 volumes of ice-cold buffer, dispensed into 0.5 ml aliquots and stored at −80° C. until use. Protein concentration for each preparation is determined using Bio-Rad Protein Assay Kit.
(§3) The affinity of the compounds of the invention to the human DAT or NET or SERT transporters is assessed by using the [^3H]WIN-35,428 or [^3H]nisoxetine or [^3H]citalopram binding assays in recombinant human DAT, NET and SERT membranes with the SPA technology. The final assay volume is 50 μL in 384 well plates.
(§4) Briefly, 0.5 μL of test compound in neat DMSO or 0.5 μL of DMSO for total binding (TB) or 0.5 μL of indatraline 1 mM (10 μM final concentration) for non specific binding (NSB) are added to the assay plate. 50 μL of the SPA mixture is added to each well, containing: 30 μg/mL or 10 μg/mL or 25 μg/mL DAT, NET, SERT membranes, respectively; 5 nM [^3H]WIN-35,428 or 5 nM [^3H]nisoxetine or 1 nM [^3H]citalopram, for DAT, NET, SERT assay, respectively; 2.5 mg/mL or 1 mg/mL or 4 mg/mL WGA-PVT SPA beads (PerkinElmer RPNQ0001, for DAT, NET, SERT assay, respectively. All components are added to Assay Buffer (20 mM HEPES pH 7.4, 145 mM NaCl, 5 mM KCl, 0.01% Pluronic F-127). 0.02% BSA was used for DAT binding only. Plates are sealed with Topseal A and centrifuged 1 min, 800 rpm. Plates are loaded into a 1450 Microbeta TriLux (Perkin-Elmer) plate reader and the radioactivity counted after at least 4 hrs or overnight incubation at room temperature. Curve fitting and IC50 estimations are performed using a four parameter model in XLfit (IDBS, Guilford, UK) for Microdoft Excel (Microsoft, Redmond, Wash.).
The potency of the compounds of the invention in blocking the DAT function is measured using an uptake assay in a recombinant CHO cell line expressing human DAT (hDAT-CHO). Potency is measured in terms of pIC50 by testing the compounds of invention for the inhibition of [^3H]-dopamine uptake in DAT-CHO cells using a SPA technology in 384 well format.
Briefly, on the days of the experiment hDAT-CHO cells are detached using Versene and added (75,000 cells/mL) to the SPA Mixture, which contains the following components in Assay Buffer (20 mM HEPES, 145 mM NaCl, 5 mM KCl, 2 mM CaCl2, 1 mM MgCl2 and 1 g/L glucose, pH 7.3): 0.02% w/v of Pluronic F127, 2 mg/mL SPA Imaging beads (RPNQ0260, PerkinElmer), 10 μM pargyline and 80 nM of [^3H]-dopamine. […]

[2] = molecular target: human serotonin transporter (SERT) (Homo sapiens (Human), UniProt P31645); test: Scintillation Proximity Assay (SPA) for human SERT binding ([3H]citalopram); settings: recombinant human SERT, CHO membranes
Excerpt: as §1, §2, §3, §4

[3] = molecular target: human norepinephrine transporter (NET) (Homo sapiens (Human), UniProt P23975); test: Scintillation Proximity Assay (SPA) for human NET binding ([3H]nisoxetine); settings: recombinant human NET, CHO membranes
Excerpt: as §1, §2, §3, §4

[4] = molecular target: human ERG potassium channel (hERG) (Homo sapiens (Human), UniProt Q12809); test: hERG channel tail current recording using Rapid ICE automated patch-clamp; format: cell-based; settings: HEK293 cells stably transfected with hERG
Protocol: The potency of the compounds of the invention in inhibiting human ERG potassium channel (hERG) tail current is assessed in a recombinant HEK293 cell line stably transfected with hERG cDNA using Rapid ICE™ (Rapid Ion Channel Electrophysiology) assay. Rapid ICE™ is an automated patch-clamp assay utilizing the PatchXpress 7000A system (Molecular Devices Corporation) or the QPatch HTX system (Sophion Bioscience A/S).
Briefly cells are cultivated for 24 to 72 hours before recordings in minimum essential medium supplemented with 10% FBS, 1% non-essential amino acids, 1% sodium pyruvate, 2 mM L-glutamine. The day of the experiment cells are detached with TrypLE and prepared to be loaded on the instrument. For PatchXpress cells are finally resuspended in 150 μl of Extracellular Buffer whereas for QPatch cells are resuspended in 7 ml Serum-Free Media containing 25 mM Hepes and Soybean trypsin inhibitor and immediately placed in the cell storage tank of the machine. The composition of the Extracellular Buffer is (mM): NaCl 137; KCl 4; CaCl2 1.8; MgCl2 1.0; D-glucose 10; N 2 hydroxyethylpiperazine-N′-2-ethanesulfonic acid (HEPES) 10; pH 7.4 with 1 M NaOH. The composition of the pipette solution is (mM): KCl 130; MgCl2 1.0; Ethylene glycol-bis(β-aminoethyl ether)-N,N,N′,N′-tetraacetic acid (EGTA) 5; MgATP 5; HEPES 10; pH 7.2 with 1 M KOH. The voltage protocol includes the following steps: step from −80 mV to −50 mV for 200 ms, +20 mV for 4.8 s, step to −50 mV for 5 s then step to the holding potential of −80 mV. Compounds of the invention are dissolved in DMSO and diluted in Extracellular Buffer to achieve final test concentrations (0.1, 1 and 10 μM) in 0.1% DMSO. The voltage protocol is run and recorded continuously during the experiment. The vehicle, corresponding to 0.1% DMSO in Extracellular Buffer, is then applied for 3 min followed by the test substance in triplicate. The standard combined exposure time is 5 min. The average of tail current amplitude values recorded from 4 sequential voltage pulses is used to calculate for each cell the effect of the test substance by calculating the residual current (% control) compared with vehicle pre-treatment. Data are reported as % inhibition for each concentration tested and IC50 values are estimated using DataXpress or QPatch software. At least two cells are tested, more if results diverge.

Chain of human ERG potassium channel (hERG) (Q12809 whole entry): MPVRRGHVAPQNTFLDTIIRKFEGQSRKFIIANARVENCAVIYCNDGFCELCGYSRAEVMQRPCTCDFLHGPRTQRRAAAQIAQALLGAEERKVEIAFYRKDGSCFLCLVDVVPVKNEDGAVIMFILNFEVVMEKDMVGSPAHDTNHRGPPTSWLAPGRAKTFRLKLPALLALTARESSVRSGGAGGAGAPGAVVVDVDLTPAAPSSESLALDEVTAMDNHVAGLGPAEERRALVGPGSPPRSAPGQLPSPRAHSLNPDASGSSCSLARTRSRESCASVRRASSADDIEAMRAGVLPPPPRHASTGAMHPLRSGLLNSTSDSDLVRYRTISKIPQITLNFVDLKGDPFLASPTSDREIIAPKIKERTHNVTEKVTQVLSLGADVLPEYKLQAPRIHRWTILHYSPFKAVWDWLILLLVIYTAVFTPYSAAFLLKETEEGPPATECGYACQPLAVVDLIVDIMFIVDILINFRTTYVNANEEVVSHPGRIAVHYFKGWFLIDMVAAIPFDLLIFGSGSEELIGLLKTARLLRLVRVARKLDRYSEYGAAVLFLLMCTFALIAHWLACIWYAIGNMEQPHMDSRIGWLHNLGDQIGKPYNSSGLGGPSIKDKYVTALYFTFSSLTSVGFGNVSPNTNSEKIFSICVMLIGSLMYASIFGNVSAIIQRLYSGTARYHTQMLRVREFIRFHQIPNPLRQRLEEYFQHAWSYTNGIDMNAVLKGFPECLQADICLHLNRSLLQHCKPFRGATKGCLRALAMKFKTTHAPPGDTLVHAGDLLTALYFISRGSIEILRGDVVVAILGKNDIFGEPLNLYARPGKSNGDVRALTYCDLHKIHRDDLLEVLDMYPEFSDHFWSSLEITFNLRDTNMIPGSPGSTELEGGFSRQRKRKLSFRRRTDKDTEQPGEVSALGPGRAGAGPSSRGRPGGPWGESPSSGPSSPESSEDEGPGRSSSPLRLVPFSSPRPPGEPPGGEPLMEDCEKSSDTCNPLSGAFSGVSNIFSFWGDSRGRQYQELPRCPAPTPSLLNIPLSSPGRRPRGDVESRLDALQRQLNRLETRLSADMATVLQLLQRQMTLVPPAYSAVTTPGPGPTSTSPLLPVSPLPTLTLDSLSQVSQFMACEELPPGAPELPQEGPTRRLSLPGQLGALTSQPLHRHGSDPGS
Chain of human serotonin transporter (SERT) (P31645 whole entry): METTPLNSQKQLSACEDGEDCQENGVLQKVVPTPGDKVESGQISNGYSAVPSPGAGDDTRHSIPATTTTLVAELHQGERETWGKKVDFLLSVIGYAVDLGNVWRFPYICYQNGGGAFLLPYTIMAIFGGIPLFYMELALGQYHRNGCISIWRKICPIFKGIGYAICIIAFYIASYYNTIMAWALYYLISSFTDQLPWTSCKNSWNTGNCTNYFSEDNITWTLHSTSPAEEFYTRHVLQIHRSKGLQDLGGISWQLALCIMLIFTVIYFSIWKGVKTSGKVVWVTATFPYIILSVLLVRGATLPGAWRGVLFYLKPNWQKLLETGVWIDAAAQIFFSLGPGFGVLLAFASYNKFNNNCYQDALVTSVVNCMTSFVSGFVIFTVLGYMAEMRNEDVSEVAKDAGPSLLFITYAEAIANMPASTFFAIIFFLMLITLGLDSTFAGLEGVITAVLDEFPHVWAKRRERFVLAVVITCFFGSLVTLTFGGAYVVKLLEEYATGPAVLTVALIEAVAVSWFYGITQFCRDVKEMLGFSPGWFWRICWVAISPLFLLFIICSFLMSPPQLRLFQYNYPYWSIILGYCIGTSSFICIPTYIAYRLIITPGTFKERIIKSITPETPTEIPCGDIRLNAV
Chain of human norepinephrine transporter (NET) (P23975 whole entry): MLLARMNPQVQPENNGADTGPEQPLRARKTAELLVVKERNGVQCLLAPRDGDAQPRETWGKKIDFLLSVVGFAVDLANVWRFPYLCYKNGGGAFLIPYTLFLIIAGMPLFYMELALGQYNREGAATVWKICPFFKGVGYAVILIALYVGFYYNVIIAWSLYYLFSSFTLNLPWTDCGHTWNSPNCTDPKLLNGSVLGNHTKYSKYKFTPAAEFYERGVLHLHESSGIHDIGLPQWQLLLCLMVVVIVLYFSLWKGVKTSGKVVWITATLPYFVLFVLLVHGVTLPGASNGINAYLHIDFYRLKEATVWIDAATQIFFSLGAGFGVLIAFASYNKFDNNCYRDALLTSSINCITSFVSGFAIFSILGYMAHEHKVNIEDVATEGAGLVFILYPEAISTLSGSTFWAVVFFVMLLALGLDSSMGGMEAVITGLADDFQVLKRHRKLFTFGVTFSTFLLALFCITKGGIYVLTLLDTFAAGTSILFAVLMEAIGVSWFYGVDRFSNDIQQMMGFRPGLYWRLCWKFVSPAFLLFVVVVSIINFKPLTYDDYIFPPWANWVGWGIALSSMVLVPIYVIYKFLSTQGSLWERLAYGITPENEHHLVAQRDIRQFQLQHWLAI
Chain of human dopamine transporter (DAT) (Q01959 whole entry): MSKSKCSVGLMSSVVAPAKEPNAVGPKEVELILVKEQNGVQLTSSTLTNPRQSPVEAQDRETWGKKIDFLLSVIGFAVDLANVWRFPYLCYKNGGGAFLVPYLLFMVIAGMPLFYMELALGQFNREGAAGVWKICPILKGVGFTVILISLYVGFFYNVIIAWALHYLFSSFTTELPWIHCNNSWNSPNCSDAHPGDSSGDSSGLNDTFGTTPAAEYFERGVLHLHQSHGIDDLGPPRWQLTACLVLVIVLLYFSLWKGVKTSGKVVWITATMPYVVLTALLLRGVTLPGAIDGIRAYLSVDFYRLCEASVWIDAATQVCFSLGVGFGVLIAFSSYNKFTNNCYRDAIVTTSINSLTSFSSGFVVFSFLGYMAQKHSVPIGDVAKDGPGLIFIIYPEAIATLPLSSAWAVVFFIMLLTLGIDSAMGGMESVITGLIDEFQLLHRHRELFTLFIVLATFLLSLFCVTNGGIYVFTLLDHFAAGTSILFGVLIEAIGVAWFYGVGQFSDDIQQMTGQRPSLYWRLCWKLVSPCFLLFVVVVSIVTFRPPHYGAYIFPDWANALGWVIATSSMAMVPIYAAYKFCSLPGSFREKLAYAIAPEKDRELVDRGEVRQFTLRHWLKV

**Q.** For NCC1(O)CCN(c2cc(F)c(F)c(Oc3cccc(F)c3)c2)CC1 [Example 19, 4-(aminomethyl)-1-[3,4-difluoro-5-(3-fluorophenoxy)phenyl]piperidin-4-ol], which “pIC50 DAT” value [1] is on record?
**A.** Its value is 8.02.

**Q.** And the IC50 [2]?
**A.** Its IC50 is 0.363 µM.

**Q.** What about the “pIC50 NET” value [3] of the same compound?
**A.** The value was 6.10.

**Q.** And the “pIC50 hERG” value [4]?
**A.** Its value is 6.1.

**Q.** Which results are given for CC(C)C(=O)NCC1(O)CCN(c2nc(Oc3cccc(F)c3)cc(C(F)(F)F)n2)CC1 [Example 21, N-({1-[4-(3-fluorophenoxy)-6-(trifluoromethyl)pyrimidin-2-yl]-4-hydroxypiperidin-4-yl}methyl)-2-methylpropanamide]?
**A.** pIC50 DAT [1]: 7.84; IC50 [2]: > 100 µM; pIC50 NET [3]: 4.75; IC50 [4]: > 10 µM

**Q.** O=C(NCC1(O)CCN(c2nc(Oc3cccc(F)c3)cc(C(F)(F)F)n2)CC1)C1CNC1 [Example 25, N-({1-[4-(3-fluorophenoxy)-6-(trifluoromethyl)pyrimidin-2-yl]-4-hydroxypiperidin-4-yl}methyl)azetidine-3-carboxamide] was tested. Which “pIC50 DAT” value [1] did it give?
**A.** The value was 8.30.

**Q.** And the IC50 [2]?
**A.** The IC50 was 35.5 µM.

**Q.** What about the “pIC50 NET” value [3] of the same compound?
**A.** Its value is 5.70.

**Q.** What about the IC50 [4] of the same compound?
**A.** The IC50 was > 10 µM.

**Q.** For O=C(NCC1(O)CCN(c2nc(Oc3cccc(F)c3)cc(C(F)(F)F)n2)CC1)c1ccccc1 [Example 26, N-({1-[4-(3-fluorophenoxy)-6-(trifluoromethyl)pyrimidin-2-yl]-4-hydroxypiperidin-4-yl}methyl)benzamide], which “pIC50 DAT” value [1] is on record?
**A.** The value was 7.65.

**Q.** What about the IC50 [2] of the same compound?
**A.** The IC50 was > 100 µM.

**Q.** And the IC50 [3]?
**A.** Its IC50 is > 100 µM.

**Q.** What about the “pIC50 hERG” value [4] of the same compound?
**A.** Its value is 5.5.

**Q.** Which “pIC50 DAT” value [1] does the source give for O=C(NCC1(O)CCN(c2nc(Oc3cccc(F)c3)cc(C(F)(F)F)n2)CC1)c1cn[nH]c1 [Example 27, N-({1-[4-(3-fluorophenoxy)-6-(trifluoromethyl)pyrimidin-2-yl]-4-hydroxypiperidin-4-yl}methyl)-1H-pyrazole-4-carboxamide] here?
**A.** Its value is 7.72.

**Q.** What about the IC50 [2] of the same compound?
**A.** Its IC50 is 34.7 µM.

**Q.** What about the “pIC50 NET” value [3] of the same compound?
**A.** The value was 5.65.

**Q.** What about the “pIC50 hERG” value [4] of the same compound?
**A.** Its value is 5.3.

**Q.** Which results are given for O=C(NCC1(O)CCN(c2nc(Oc3cccc(F)c3)cc(C(F)(F)F)n2)CC1)c1cnccn1 [Example 28, N-({1-[4-(3-fluorophenoxy)-6-(trifluoromethyl)pyrimidin-2-yl]-4-hydroxypiperidin-4-yl}methyl)pyrazine-2-carboxamide]?
**A.** pIC50 DAT [1]: 7.86; IC50 [2]: > 100 µM; pIC50 NET [3]: 5.96; pIC50 hERG [4]: 5.5

**Q.** NCC(=O)NCC1(O)CCN(c2nc(Oc3cccc(F)c3)cc(C(F)(F)F)n2)CC1 [Example 29, 2-amino-N-({1-[4-(3-fluorophenoxy)-6-(trifluoromethyl)pyrimidin-2-yl]-4-hydroxypiperidin-4-yl}methyl)acetamide] was tested. Which “pIC50 DAT” value [1] did it give?
**A.** Its value is 8.22.

**Q.** And the IC50 [2]?
**A.** Its IC50 is 19.1 µM.

**Q.** And the “pIC50 NET” value [3]?
**A.** The value was 5.77.

**Q.** And the “pIC50 hERG” value [4]?
**A.** The value was 5.4.

**Q.** For NCC1(O)CCN(c2nc(Oc3cccc(F)c3)cc(C(F)(F)F)n2)C1 (centres unmarked) [Example 33, 3-(aminomethyl)-1-[4-(3-fluorophenoxy)-6-(trifluoromethyl)pyrimidin-2-yl]pyrrolidin-3-ol], which “pIC50 DAT” value [1] is on record?
**A.** Its value is 8.86.

**Q.** What about the IC50 [2] of the same compound?
**A.** The IC50 was 19.1 µM.

**Q.** What about the “pIC50 NET” value [3] of the same compound?
**A.** Its value is 6.52.

**Q.** And the “pIC50 hERG” value [4]?
**A.** Its value is 5.8.

**Q.** How did the “pIC50 DAT” value [1] turn out when Fc1cccc(Oc2cc(C(F)(F)F)nc(N3CCc4nc[nH]c4C3)n2)c1 [Example 36, 4-(3-fluorophenoxy)-2-{3H,4H,5H,6H,7H-imidazo[4,5-c]pyridin-5-yl}-6-(trifluoromethyl)pyrimidine] was run?
**A.** Its value is 7.90.

**Q.** What about the IC50 [2] of the same compound?
**A.** Its IC50 is > 100 µM.

**Q.** What about the “pIC50 NET” value [3] of the same compound?
**A.** The value was 6.01.

**Q.** And the “pIC50 hERG” value [4]?
**A.** Its value is 5.6.

**Q.** Which results are given for Cl.Fc1cccc(Oc2cc(C(F)(F)F)nc(N3CCC4NCCCC4C3)n2)c1 (centres unmarked) [Example 39, 6-[4-(3-fluorophenoxy)-6-(trifluoromethyl)pyrimidin-2-yl]-decahydro-1,6-naphthyridine hydrochloride]?
**A.** pIC50 DAT [1]: 8.90; IC50 [2]: 3.02 µM; pIC50 NET [3]: 7.51; pIC50 hERG [4]: 6.2

**Q.** For “(3S or 3R)-3-[(cyclopropylamino)methyl]-1-[4-(3-fluorophenoxy)-6-(trifluoromethyl)pyrimidin-2-yl]pyrrolidin-3-ol [Example 31]”, which “pIC50 DAT” value [1] is on record?
**A.** Its value is 8.75.

**Q.** And the “pIC50 SERT” value [2]?
**A.** Its value is 4.46.

**Q.** And the “pIC50 NET” value [3]?
**A.** Its value is 6.86.

**Q.** And the “pIC50 hERG” value [4]?
**A.** Its value is 5.7.
